{"source": "patent US7253281B2", "about": "“Anti-obesity 1,2,3,4,10,10a-hexahydropyrazino[1,2-a]indoles” (Hoffmann-La Roche Inc., priority 2000, dated 2007)", "key": {"[1]": {"molecular_target": "T1, human 5-HT2A receptor (CHO cells) (Homo sapiens, UniProt P28223)", "T1 construct": "expressed in transfected cells; host or cells: CHO cells", "T1 sequence (P28223 whole entry)": "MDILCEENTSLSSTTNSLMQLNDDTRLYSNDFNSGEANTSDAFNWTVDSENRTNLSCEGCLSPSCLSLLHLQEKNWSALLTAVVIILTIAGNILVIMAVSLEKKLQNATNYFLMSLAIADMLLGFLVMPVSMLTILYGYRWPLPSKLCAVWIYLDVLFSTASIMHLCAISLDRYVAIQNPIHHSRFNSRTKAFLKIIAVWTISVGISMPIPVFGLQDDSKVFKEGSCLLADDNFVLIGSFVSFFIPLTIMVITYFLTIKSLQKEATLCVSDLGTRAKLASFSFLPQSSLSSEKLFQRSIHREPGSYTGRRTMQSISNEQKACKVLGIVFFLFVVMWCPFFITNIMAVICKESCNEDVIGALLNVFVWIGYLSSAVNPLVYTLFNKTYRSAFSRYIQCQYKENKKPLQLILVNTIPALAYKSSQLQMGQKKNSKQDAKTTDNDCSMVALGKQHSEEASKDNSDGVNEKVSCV", "assay": "Functional activity, FLIPR calcium assay, h5-HT2A", "type": "cell-based", "procedure": "(§1) The functional activity of compounds of formula (I) was assayed using a Fluorimetric Imaging Plate reader (FLIPR). CHO cells expressing the human 5-HT2C or human 5-HT2A receptors were counted and plated into standard 96 well microtitre plates on the day before testing to give a confluent monolayer. The cells were then dye loaded with the calcium sensitive dye, Fluo-3-AM. Unincorporated dye was removed using an automated cell washer to leave a total volume of 100 μL/well of assay buffer (Hanks balanced salt solution containing 20 mM Hepes and 2.5 mM probenecid). The drug (dissolved in 50 μL of the assay buffer) was added at a rate of 70 μL/sec to each well of the FLIPR 96 well plate during fluorescence measurements. The measurements were taken at 1 sec intervals and the maximum fluorescent signal was measured (approx 10–15 secs after drug addition) and compared with the response produced by 10 μM 5-HT (defined as 100%) to which it was expressed as a percentage response (relative efficacy). Dose response curves were constructed using Graphpad Prism (Graph Software Inc.)."}, "[2]": {"molecular_target": "T2, human 5-HT2C receptor (CHO cells) (Homo sapiens, UniProt P28335)", "T2 construct": "expressed in transfected cells; host or cells: CHO cells", "T2 sequence (P28335 33-458)": "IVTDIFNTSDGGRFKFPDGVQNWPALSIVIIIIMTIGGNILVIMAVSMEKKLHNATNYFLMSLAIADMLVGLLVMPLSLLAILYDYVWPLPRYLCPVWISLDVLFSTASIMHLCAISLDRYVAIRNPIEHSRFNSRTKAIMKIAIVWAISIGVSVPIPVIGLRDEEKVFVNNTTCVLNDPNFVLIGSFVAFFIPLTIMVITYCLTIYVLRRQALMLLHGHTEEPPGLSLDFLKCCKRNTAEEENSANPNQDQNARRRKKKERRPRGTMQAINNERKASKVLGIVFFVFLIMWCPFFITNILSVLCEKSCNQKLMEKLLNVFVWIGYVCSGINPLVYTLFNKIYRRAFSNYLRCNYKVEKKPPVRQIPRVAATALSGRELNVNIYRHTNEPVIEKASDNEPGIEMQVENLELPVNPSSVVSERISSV", "assay": "Functional activity, FLIPR calcium assay, h5-HT2C", "type": "cell-based", "procedure": "as §1"}, "[3]": {"molecular_target": "h5-HT2B (Homo sapiens, UniProt P41595)", "sequence (P41595 whole entry)": "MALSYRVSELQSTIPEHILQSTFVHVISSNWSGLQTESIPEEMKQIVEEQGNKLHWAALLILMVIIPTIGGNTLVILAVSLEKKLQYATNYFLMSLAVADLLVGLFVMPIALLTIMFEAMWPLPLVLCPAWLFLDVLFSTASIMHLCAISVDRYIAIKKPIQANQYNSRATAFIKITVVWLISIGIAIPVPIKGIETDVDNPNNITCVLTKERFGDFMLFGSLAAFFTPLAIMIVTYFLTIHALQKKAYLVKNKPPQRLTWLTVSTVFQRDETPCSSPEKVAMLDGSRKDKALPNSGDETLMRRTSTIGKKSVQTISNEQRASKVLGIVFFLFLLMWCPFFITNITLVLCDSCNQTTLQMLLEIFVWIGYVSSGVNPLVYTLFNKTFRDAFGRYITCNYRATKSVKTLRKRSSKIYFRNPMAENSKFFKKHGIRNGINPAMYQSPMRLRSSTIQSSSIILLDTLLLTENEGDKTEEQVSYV", "assay": "Functional activity, FLIPR calcium assay, h5-HT2B", "type": "cell-based"}, "[4]": {"molecular_target": "T3, human 5-HT2B receptors in a CHO cell line (Homo sapiens, UniProt P41595)", "T3 construct": "expressed in transfected cells; host or cells: CHO cell line", "T3 sequence (P41595 whole entry)": "as above", "assay": "Binding to 5-HT2B receptor, [3H]-5-HT, Method (b)", "conditions": "read-out: Ki (2B)", "procedure": "(§2) The binding of compounds of formula (I) to serotonin receptors was determined in vitro by standard methods. The preparations were investigated in accordance with the assays given hereinafter.\nMethod (b): For the binding to the 5-HT2B receptor the 5-HT2B receptors were radiolabeled with [^3H]-5-HT. The affinity of the compounds for human 5-HT2B receptors in a CHO cell line was determined according to the procedure of K. Schmuck, C. Ullmer, P. Engels and H. Lubbert, FEBS Lett., 1994, 342, 85–90."}, "[5]": {"molecular_target": "T4, 5-HT2A receptors in a CHO cell line (Homo sapiens, UniProt P28223)", "T4 construct": "expressed in transfected cells; host or cells: CHO cell line", "T4 sequence (P28223 whole entry)": "as the sequence (P28223 whole entry) above", "assay": "Binding to 5-HT2A receptor, [125I]-DOI, Method (c)", "conditions": "read-out: Ki (2A)", "procedure": "as §2\nMethod (c): For the binding to the 5-HT2A receptor the 5-HT2A receptors were radiolabeled with [^125I]-DOI. The affinity of the compounds for 5-HT2A receptors in a CHO cell line was determined according to the procedure of D. J. McKenna and S. J. Peroutka, J. Neurosci., 1989, 9, 3482–90."}, "[6]": {"molecular_target": "T5, 5-HT2C receptors in a CHO cell line (Homo sapiens, UniProt P28335)", "T5 construct": "expressed in transfected cells; host or cells: CHO cell line", "T5 sequence (P28335 33-458)": "T2 sequence (P28335 33-458)", "assay": "Binding to 5-HT2C receptor, [3H]-5-HT, Method (a)", "conditions": "read-out: Ki (2C)", "procedure": "as §2\nMethod (a): For the binding to the 5-HT2C receptor the 5-HT2C receptors were radiolabeled with [^3H]-5-HT. The affinity of the compounds for 5-HT2C receptors in a CHO cell line was determined according to the procedure of D. Hoyer, G. Engel and H. O. Kalkman, European J. Pharmacol., 1985, 118, 13–23."}, "[7]": {"conditions": "relative to response of 10 μM 5-HT (100%)"}}, "note": "pEC50, pKi: −log10 of the molar value.", "data": [{"smiles": "C[C@@H]1CNC[C@H]2Cc3ccc(Cl)cc3N21", "note": "[Example 8, (4R,10aR)-7-Chloro-4-methyl-1,2,3,4,10,10a-hexahydro-pyrazino[1,2-a]indole]", "values": [{"measurement": "pEC50", "setting": "[1]; FLIPR, CHO cells", "result": 7.72}, {"measurement": "h5-HT2A Relative Efficacy (%)", "setting": "[1]; [7]", "result": 60, "unit": "%"}, {"measurement": "pEC50", "setting": "[2]; FLIPR, CHO cells", "result": 9.40}, {"measurement": "h5-HT2c Relative Efficacy (%)", "setting": "[2]; [7]", "result": 97, "unit": "%"}, {"measurement": "pEC50", "setting": "[3]; FLIPR", "result": 8.47}, {"measurement": "h5-HT2B Relative Efficacy (%)", "setting": "[3]; [7]", "result": 62, "unit": "%"}]}, {"smiles": "C[C@@H]1CNC[C@@H]2Cc3ccc(C(F)(F)F)cc3N21.Cl", "values": [{"measurement": "melting point", "result": "245 to 250 °C (dec.)"}]}, {"smiles": "O=C1OCCN1CN1CCN2c3cccc(Br)c3C[C@@H]2C1", "note": "[Example 3, (10aR)-3-(9-Bromo-3,4,10,10a-tetrahydro-1H-pyrazino[1,2-a]indol-2-ylmethyl)-oxazolidin-2-one]", "values": [{"measurement": "pKi", "setting": "[4]", "result": 6.96}, {"measurement": "pKi", "setting": "[5]", "result": 6.64}, {"measurement": "pKi", "setting": "[6]", "result": 7.59}]}, {"smiles": "C[C@@H]1CNC[C@H]2Cc3ccc(C(F)(F)F)cc3N21.Cl", "values": [{"measurement": "melting point", "result": "221 to 224", "unit": "°C"}]}, {"smiles": "CCCCNC(=O)c1ccc2c(c1)N1[C@@H](CNC[C@H]1C)C2.Cl", "values": [{"measurement": "melting point", "result": "125 °C (dec.)"}]}, {"smiles": "C[C@@H]1CNC[C@H]2Cc3ccc(CO)cc3N21.Cl", "values": [{"measurement": "melting point", "result": "66 °C (dec.)"}]}, {"smiles": "Cc1cc2c(cc1C(F)(F)F)N1[C@H](CNC[C@H]1C)C2.Cl", "values": [{"measurement": "melting point", "result": "200 to 205", "unit": "°C"}]}, {"smiles": "CC(=O)Nc1ccc2c(c1)N1[C@@H](CNC[C@H]1C)C2.Cl", "values": [{"measurement": "melting point", "result": "> 250 °C (dec.)"}]}]}
